≈ marks a conversion by molar mass, not a printed value.
Legend:
Format in all cases: cell-based
[1] = system: STREPTOCOCCUS BOVIS A-5169; assay: In vitro antibacterial activity, MIC, BHI agar dilution; conditions: S. bovis A-5169, unit assumed
[2] = system: STREPTOCOCCUS PYOGENES 930; assay: as above; conditions: S. pyogenes 930, unit assumed
[3] = system: M[…] ATCC 9341; assay: as above; conditions: M. luteus ATCC 9341, unit assumed
Method in brief: (§1)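 Agar dilution in BHI: plates inoculated with 1:100 dilutions of organisms (1:10 for Micrococcus and Streptococcus), incubated 20-24 h at 35-37° C, then inspected for the lowest inhibitory concentration against a drug-free growth control.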

[4] = system: EN[…] ATCC 8043; assay: as above; conditions: E. faecium ATCC 8043, unit assumed
Method in brief: as §1

[5] = system: M[…] ATCC 4698; assay: as above; conditions: M. luteus ATCC 4698, unit assumed
Method in brief: as §1

[6] = system: STR[…] 508; assay: as above; conditions: S. agalactiae CMX 508, unit assumed
Method in brief: as §1

[7] = system: PROVIDENCIA STUARTII CMX 640; conditions: P. stuartii CMX 640; BHI agar; unit assumed
[8] = system: STAPHYLOCOCCUS EPIDERMIDIS 3519; conditions: S. epidermidis 3519; BHI agar; unit assumed
[9] = system: STAPHYLOCOCCUS AUREUS 1775; assay: In vitro antibacterial activity, MIC, BHI agar dilution; conditions: S. aureus 1775, unit assumed
[10] = system: ACINETOBACTER CALCOACETICUS CMX 669; assay: as above; conditions: A. calcoaceticus CMX 669, unit assumed
[11] = system: PSEUDOMONAS AERUGINOSA BMH10; assay: as above; conditions: P. aeruginosa BMH10, unit assumed
[12] = system: PSEUDOMONAS AERUGINOSA DPHD-5263; assay: as above; conditions: P. aeruginosa DPHD-5263, unit assumed
[13] = system: CANDIDA ALBICANS CCH 442; assay: as above; conditions: C. albicans CCH 442, unit assumed
[14] = system: PSEUDOMONAS AERUGINOSA K799/61; assay: as above; conditions: P. aeruginosa K799/61, unit assumed
[15] = system: PSEUDOMONAS AERUGINOSA K799/WT; assay: as above; conditions: P. aeruginosa K799/WT, unit assumed
[16] = system: STAPHYLOCOCCUS AUREUS ATCC 6538P; assay: as above; conditions: S. aureus ATCC 6538P, 35-37° C., 20 to 24 hours, unit assumed
[17] = system: PSEUDOMONAS AERUGINOSA DPHD-2862; assay: as above; conditions: P. aeruginosa DPHD-2862, unit assumed
[18] = system: ENTEROBACTER AEROGENES ATCC 13048; assay: as above; conditions: E. aerogenes ATCC 13048, unit assumed
[19] = system: MYCOBACTERIUM SMEGMATIS ATCC 114; assay: as above; conditions: M. smegmatis ATCC 114, unit assumed
[20] = system: PSEUDOMONAS CEPACIA 296I; assay: as above; conditions: P. cepacia 296I, unit assumed
[21] = system: ESCHERICHIA COLI KNK 437; conditions: E. coli KNK 437; BHI agar; unit assumed
[22] = system: STAPHYLOCOCCUS AUREUS A-5278; assay: In vitro antibacterial activity, MIC, BHI agar dilution; conditions: S. aureus A-5278, unit assumed
[23] = system: STAPHYLOCOCCUS AUREUS CMX 642A; assay: as above; conditions: S. aureus CMX 642A, unit assumed
[24] = system: STAPHYLOCOCCUS AUREUS CMX 553; assay: as above; conditions: S. aureus CMX 553, unit assumed
[25] = system: ESCHERICHIA COLI H560; assay: as above; conditions: E. coli H560, unit assumed
[26] = system: STREPTOCOCCUS PYOGENES EES61; assay: as above; conditions: S. pyogenes EES61, unit assumed
[27] = system: ESCHERICHIA COLI JUHL; conditions: E. coli JUHL; BHI agar; unit assumed
[28] = system: PSEUDOMONAS AERUGINOSA 5007; assay: In vitro antibacterial activity, MIC, BHI agar dilution; conditions: P. aeruginosa 5007, unit assumed
[29] = system: STAPHYLOCOCCUS AUREUS NCTC10649M; assay: as above; conditions: S. aureus NCTC10649M, unit assumed
[30] = system: STREPTOCOCCUS PYOGENES PIU 2548; assay: as above; conditions: S. pyogenes PIU 2548, unit assumed
[31] = system: ESCHERICHIA COLI SS; assay: as above; conditions: E. coli SS, unit assumed
[32] = system: ESCHERICHIA COLI DC-2; assay: as above; conditions: E. coli DC-2, unit assumed
[33] = system: KLEBSIELLA PNEUMONIAE ATCC 8045; assay: as above; conditions: K. pneumoniae ATCC 8045, unit assumed

Question: `CC[C@H]1OC(=O)[C@H](C)C(=O)[C@H](C)[C@@H](O[C@@H]2O[C@H](C)C[C@H](N(C)C)[C@H]2O)[C@](C)(OC)C[C@@H](C)C2=NC[C@H](Cc3ccccc3)N3C(=O)O[C@@]1(C)[C@H]3[C@H]2C` [Example 5] was tested. Which MIC [1] did it give?
Answer: 0.01 µg/mL (≈ 0.0137 µM)

Question: And the MIC [2]?
Answer: > 100 µg/mL

Question: What about the MIC [3] of the same compound?
Answer: 0.05 µg/mL (≈ 0.0687 µM)

Question: What about the MIC [4] of the same compound?
Answer: 0.05 µg/mL (≈ 0.0687 µM)

Question: And the MIC [5]?
Answer: 0.2 µg/mL (≈ 0.275 µM)

Question: And the MIC [6]?
Answer: 0.02 µg/mL (≈ 0.0275 µM)

Question: And the MIC [7]?
Answer: > 100 µg/mL

Question: And the MIC [8]?
Answer: 0.2 µg/mL (≈ 0.275 µM)

Question: What about the MIC [9] of the same compound?
Answer: > 100 µg/mL

Question: What about the MIC [10] of the same compound?
Answer: 12.5 µg/mL (≈ 17.2 µM)

Question: What about the MIC [11] of the same compound?
Answer: 50 µg/mL (≈ 68.7 µM)

Question: What about the MIC [12] of the same compound?
Answer: > 100 µg/mL

Question: And the MIC [13]?
Answer: > 100 µg/mL

Question: And the MIC [14]?
Answer: 0.78 µg/mL (≈ 1.07 µM)

Question: And the MIC [15]?
Answer: 50 µg/mL (≈ 68.7 µM)

Question: And the MIC [16]?
Answer: 0.2 µg/mL (≈ 0.275 µM)

Question: What about the MIC [17] of the same compound?
Answer: > 100 µg/mL

Question: And the MIC [18]?
Answer: 50 µg/mL (≈ 68.7 µM)

Question: What about the MIC [19] of the same compound?
Answer: 0.2 µg/mL (≈ 0.275 µM)

Question: And the MIC [20]?
Answer: 25 µg/mL (≈ 34.3 µM)

Question: What about the MIC [21] of the same compound?
Answer: 6.2 µg/mL (≈ 8.52 µM)

Question: What about the MIC [22] of the same compound?
Answer: > 100 µg/mL

Question: What about the MIC [23] of the same compound?
Answer: 0.2 µg/mL (≈ 0.275 µM)

Question: What about the MIC [24] of the same compound?
Answer: 0.2 µg/mL (≈ 0.275 µM)

Question: What about the MIC [25] of the same compound?
Answer: 3.1 µg/mL (≈ 4.26 µM)

Question: What about the MIC [26] of the same compound?
Answer: 0.02 µg/mL (≈ 0.0275 µM)

Question: What about the MIC [27] of the same compound?
Answer: 12.5 µg/mL (≈ 17.2 µM)

Question: And the MIC [28]?
Answer: > 100 µg/mL

Question: What about the MIC [29] of the same compound?
Answer: 0.2 µg/mL (≈ 0.275 µM)

Question: What about the MIC [30] of the same compound?
Answer: 0.39 µg/mL (≈ 0.536 µM)

Question: What about the MIC [31] of the same compound?
Answer: 0.39 µg/mL (≈ 0.536 µM)

Question: Which results are given for `CC[C@H]1OC(=O)[C@H](C)C(=O)[C@H](C)[C@@H](O[C@@H]2O[C@H](C)C[C@H](N(C)C)[C@H]2O)[C@](C)(OC)C[C@@H](C)C2=N[C@H](C)[C@H](C)N3C(=O)O[C@@]1(C)[C@H]3[C@H]2C` [Example 10]?
Answer: MIC [1]: 0.05 µg/mL (≈ 0.0751 µM); MIC [2]: > 100 µg/mL; MIC [3]: 0.1 µg/mL (≈ 0.15 µM); MIC [5]: 0.2 µg/mL (≈ 0.3 µM); MIC [7]: > 100 µg/mL; MIC [8]: 0.39 µg/mL (≈ 0.586 µM); MIC [9]: > 100 µg/mL; MIC [10]: 25 µg/mL (≈ 37.5 µM); MIC [11]: > 100 µg/mL; MIC [12]: > 100 µg/mL; MIC [32]: 25 µg/mL (≈ 37.5 µM); MIC [13]: > 100 µg/mL; MIC [16]: 0.39 µg/mL (≈ 0.586 µM); MIC [17]: > 100 µg/mL; MIC [18]: 50 µg/mL (≈ 75.1 µM); MIC [19]: 6.2 µg/mL (≈ 9.31 µM); MIC [20]: 100 µg/mL (≈ 150 µM); MIC [22]: > 100 µg/mL; MIC [23]: 0.39 µg/mL (≈ 0.586 µM); MIC [24]: 0.39 µg/mL (≈ 0.586 µM); MIC [25]: 25 µg/mL (≈ 37.5 µM); MIC [27]: 25 µg/mL (≈ 37.5 µM); MIC [28]: > 100 µg/mL; MIC [29]: 0.39 µg/mL (≈ 0.586 µM); MIC [30]: 0.39 µg/mL (≈ 0.586 µM); MIC [31]: 0.2 µg/mL (≈ 0.3 µM)

Question: Which MIC [1] does the source give for `CC[C@H]1OC(=O)[C@H](C)C(=O)[C@H](C)[C@@H](O[C@@H]2O[C@H](C)C[C@H](N(C)C)[C@H]2O)[C@](C)(OC)C[C@@H](C)C2=NC[C@@H](CCCc3ccccc3)N3C(=O)O[C@@]1(C)[C@H]3[C@H]2C` [Example 36] here?
Answer: 0.01 µg/mL (≈ 0.0132 µM)

Question: And the MIC [2]?
Answer: 50 µg/mL (≈ 66.1 µM)

Question: And the MIC [3]?
Answer: 0.05 µg/mL (≈ 0.0661 µM)

Question: And the MIC [4]?
Answer: 0.2 µg/mL (≈ 0.265 µM)

Question: What about the MIC [6] of the same compound?
Answer: 0.05 µg/mL (≈ 0.0661 µM)

Question: What about the MIC [7] of the same compound?
Answer: 100 µg/mL (≈ 132 µM)

Question: What about the MIC [8] of the same compound?
Answer: 0.2 µg/mL (≈ 0.265 µM)

Question: What about the MIC [9] of the same compound?
Answer: > 100 µg/mL

Question: And the MIC [10]?
Answer: 50 µg/mL (≈ 66.1 µM)

Question: What about the MIC [11] of the same compound?
Answer: 50 µg/mL (≈ 66.1 µM)

Question: What about the MIC [12] of the same compound?
Answer: 50 µg/mL (≈ 66.1 µM)

Question: What about the MIC [13] of the same compound?
Answer: 100 µg/mL (≈ 132 µM)

Question: And the MIC [14]?
Answer: 1.56 µg/mL (≈ 2.06 µM)

Question: What about the MIC [15] of the same compound?
Answer: 50 µg/mL (≈ 66.1 µM)

Question: What about the MIC [16] of the same compound?
Answer: 0.2 µg/mL (≈ 0.265 µM)

Question: And the MIC [17]?
Answer: 50 µg/mL (≈ 66.1 µM)

Question: And the MIC [18]?
Answer: 25 µg/mL (≈ 33.1 µM)

Question: What about the MIC [19] of the same compound?
Answer: 0.39 µg/mL (≈ 0.516 µM)

Question: And the MIC [20]?
Answer: 50 µg/mL (≈ 66.1 µM)

Question: What about the MIC [21] of the same compound?
Answer: 12.5 µg/mL (≈ 16.5 µM)

Question: And the MIC [22]?
Answer: > 100 µg/mL

Question: What about the MIC [23] of the same compound?
Answer: 0.2 µg/mL (≈ 0.265 µM)

Question: What about the MIC [25] of the same compound?
Answer: 25 µg/mL (≈ 33.1 µM)

Question: What about the MIC [27] of the same compound?
Answer: 50 µg/mL (≈ 66.1 µM)

Question: What about the MIC [28] of the same compound?
Answer: 100 µg/mL (≈ 132 µM)

Question: And the MIC [29]?
Answer: 0.2 µg/mL (≈ 0.265 µM)

Question: And the MIC [33]?
Answer: 50 µg/mL (≈ 66.1 µM)

Question: And the MIC [30]?
Answer: 0.39 µg/mL (≈ 0.516 µM)

Reference: patent publication US6274715A, “Tricyclic erythromycin derivatives” (priority 1997, dated 2001)
